{"source": "patent EP0539209A1", "about": "“Benzo-isoquinoline derivatives and analogs and their use in therapeutics” (THE UPJOHN COMPANY, priority 1991, dated 1993)", "key": {"Dopamine - D2": {"biological_target": "Dopamine - D2 (Homo sapiens, UniProt P14416)", "sequence (P14416 whole entry)": "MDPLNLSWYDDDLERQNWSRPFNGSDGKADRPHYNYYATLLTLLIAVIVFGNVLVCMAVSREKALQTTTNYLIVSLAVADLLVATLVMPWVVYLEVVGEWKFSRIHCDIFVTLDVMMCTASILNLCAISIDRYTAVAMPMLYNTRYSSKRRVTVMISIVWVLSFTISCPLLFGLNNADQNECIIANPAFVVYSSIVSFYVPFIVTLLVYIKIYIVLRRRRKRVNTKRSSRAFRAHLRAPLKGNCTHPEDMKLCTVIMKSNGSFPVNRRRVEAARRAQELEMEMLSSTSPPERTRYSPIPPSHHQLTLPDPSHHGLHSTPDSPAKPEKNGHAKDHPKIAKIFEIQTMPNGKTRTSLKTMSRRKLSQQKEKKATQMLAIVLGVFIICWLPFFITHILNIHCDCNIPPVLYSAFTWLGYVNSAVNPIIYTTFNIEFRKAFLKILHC", "test": "CNS Receptor Binding Assay, dopamine D2", "conditions": "PART I - TABLE I; test compounds at 1 microMolar concentration", "description": "(§1) CNS Receptor Binding Assay (PART I - TABLE I): The Central Nervous System Binding Assay measures the percent inhibibition from experiments employing test compounds at 1 microMolar concentration competing with various radioligands for binding to whole brain membranes, membranes prepared from specific brain structures, or membranes prepared from cell lines expressing cloned receptors. When percent inhibition is equal to 100 the test compound binds as well as the standard compound. The standard compound for the 5-HT1A receptor is 8-OH-DPAT. The standard compound for the dopamine D1 receptor is SCH 23390.\nas §1, with “(PART II” for “(PART I”, “percent inhibition” for “percent inhibibition”, “the” for “the 5-HT1A receptor is 8-OH-DPAT. The standard compound for the”"}, "5-HT1A receptor": {"biological_target": "T1, 5-HT1A receptor (Homo sapiens, UniProt P08908)", "T1 sequence (P08908 1-422)": "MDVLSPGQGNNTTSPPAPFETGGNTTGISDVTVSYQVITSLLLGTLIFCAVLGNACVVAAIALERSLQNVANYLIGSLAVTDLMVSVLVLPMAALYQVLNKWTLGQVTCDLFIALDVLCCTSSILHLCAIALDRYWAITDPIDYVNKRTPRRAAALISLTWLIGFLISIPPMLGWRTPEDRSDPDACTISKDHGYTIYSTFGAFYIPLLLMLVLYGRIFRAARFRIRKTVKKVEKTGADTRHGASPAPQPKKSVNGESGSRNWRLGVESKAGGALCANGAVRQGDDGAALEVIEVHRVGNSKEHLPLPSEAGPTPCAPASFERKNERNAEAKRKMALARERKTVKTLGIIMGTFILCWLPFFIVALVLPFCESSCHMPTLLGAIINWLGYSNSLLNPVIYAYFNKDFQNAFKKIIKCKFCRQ", "test": "CNS Receptor Binding Assay, 5-HT1A", "conditions": "PART I - TABLE I; test compounds at 1 microMolar concentration competing with radioligand; 100 = binds as well as standard 8-OH-DPAT", "description": "as §1"}, "dopamine D1 receptor": {"biological_target": "dopamine D1 receptor (Homo sapiens, UniProt P21728)", "sequence (P21728 whole entry, species assumed)": "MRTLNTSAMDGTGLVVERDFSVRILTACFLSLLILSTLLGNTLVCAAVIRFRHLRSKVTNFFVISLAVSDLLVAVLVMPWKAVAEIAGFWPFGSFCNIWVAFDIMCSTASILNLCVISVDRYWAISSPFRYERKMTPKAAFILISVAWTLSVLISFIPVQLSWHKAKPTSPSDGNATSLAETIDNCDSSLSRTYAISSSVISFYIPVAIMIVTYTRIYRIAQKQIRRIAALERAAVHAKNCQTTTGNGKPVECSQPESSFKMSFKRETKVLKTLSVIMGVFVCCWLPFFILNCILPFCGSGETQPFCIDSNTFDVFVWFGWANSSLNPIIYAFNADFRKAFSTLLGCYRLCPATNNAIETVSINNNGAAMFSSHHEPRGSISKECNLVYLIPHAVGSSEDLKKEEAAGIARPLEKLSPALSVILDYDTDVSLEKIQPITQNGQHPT", "test": "CNS Receptor Binding Assay, dopamine D1", "conditions": "PART I - TABLE I; test compounds at 1 microMolar concentration; standard SCH 23390", "description": "as §1\nas §1, with “(PART II” for “(PART I”, “percent inhibition” for “percent inhibibition”, “the” for “the 5-HT1A receptor is 8-OH-DPAT. The standard compound for the”"}}}
{"smiles": "CCCN1CCC2Cc3c(C(N)=O)cccc3C2CC1", "note": "(single isomer, unassigned) [compound 6]", "values": [{"measurement": "Dopamine - D2 % inhibition", "setting": "Dopamine - D2", "value": 31, "unit": "%"}, {"measurement": "5-HT1A % inhibition", "setting": "5-HT1A receptor", "value": 18, "unit": "%"}, {"measurement": "Dopamine - D1 % inhibition", "setting": "dopamine D1 receptor", "value": 50, "unit": "%"}]}
{"smiles": "CCCN1CCC2Cc3c(C(N)=O)cccc3C2CC1", "note": "(single isomer, unassigned) [compound 5]", "values": [{"measurement": "inhibition at 1 µM", "setting": "Dopamine - D2", "value": 24, "unit": "%"}, {"measurement": "inhibition at 1 µM", "setting": "5-HT1A receptor", "value": 24, "unit": "%"}, {"measurement": "Dopamine - D1 % inhibition", "setting": "dopamine D1 receptor", "value": 10, "unit": "%"}]}
{"smiles": "CCCN1CCC2Cc3c(C#N)cccc3C2CC1", "note": "(single isomer, unassigned) [compound 7]", "values": [{"measurement": "Dopamine - D2 % inhibition", "setting": "Dopamine - D2", "value": 22, "unit": "%"}, {"measurement": "5-HT1A % inhibition", "setting": "5-HT1A receptor", "value": 17, "unit": "%"}, {"measurement": "Dopamine - D1 % inhibition", "setting": "dopamine D1 receptor", "value": 11, "unit": "%"}]}
{"smiles": "CCCN1CCC2Cc3cccc(C(N)=O)c3C2CC1", "note": "(single isomer, unassigned) [compound 4]", "values": [{"measurement": "Dopamine - D2 % inhibition", "setting": "Dopamine - D2", "value": 2, "unit": "%"}, {"measurement": "5-HT1A % inhibition", "setting": "5-HT1A receptor", "value": 21, "unit": "%"}, {"measurement": "Dopamine - D1 % inhibition", "setting": "dopamine D1 receptor", "value": 0, "unit": "%"}]}
{"smiles": "CCCN1CCC2Cc3c(C#N)cccc3C2CC1", "note": "(single isomer, unassigned) [compound 8]", "values": [{"measurement": "inhibition at 1 µM", "setting": "Dopamine - D2", "value": 35, "unit": "%"}, {"measurement": "inhibition at 1 µM", "setting": "5-HT1A receptor", "value": 15, "unit": "%"}, {"measurement": "inhibition at 1 µM", "setting": "dopamine D1 receptor", "value": 7, "unit": "%"}]}
{"smiles": "CCCN1CCC2Cc3c(Cl)ccc(OC)c3C2CC1", "note": "(stereo not drawn) [compound 1]", "values": [{"measurement": "inhibition at 1 µM", "setting": "Dopamine - D2", "value": 74, "unit": "%"}, {"measurement": "inhibition at 1 µM", "setting": "5-HT1A receptor", "value": 99, "unit": "%"}, {"measurement": "inhibition at 1 µM", "setting": "dopamine D1 receptor", "value": 57, "unit": "%"}]}
{"smiles": "CCCN1CCC2Cc3cccc(C(N)=O)c3C2CC1", "note": "(single isomer, unassigned) [compound 3]", "values": [{"measurement": "Dopamine - D2 % inhibition", "setting": "Dopamine - D2", "value": 45, "unit": "%"}, {"measurement": "5-HT1A % inhibition", "setting": "5-HT1A receptor", "value": 93, "unit": "%"}, {"measurement": "Dopamine - D1 % inhibition", "setting": "dopamine D1 receptor", "value": 13, "unit": "%"}]}
